Measured values published in EP0910563B1, “INTEGRIN RECEPTOR ANTAGONISTS” (SMITHKLINE BEECHAM CORPORATION, priority 1995, dated 1997).

Columns and labels:
αvβ3 = molecular target: T1, αvβ3 (Homo sapiens, UniProt P05106+P06756); test: Solid-phase [3H]-SK&F-107260 binding to αvβ3 (inhibition of vitronectin binding); settings: human placenta or platelet αvβ3 on ELISA plates, 5.0 nM [3H]-SK&F-107260
T1 construct: Human placenta or human platelet αvβ3 (0.1-0.3 mg/mL) in buffer T; from tissue; host or cells: human placenta or human platelets
T1 sequence (P06756 31-889 limits assumed): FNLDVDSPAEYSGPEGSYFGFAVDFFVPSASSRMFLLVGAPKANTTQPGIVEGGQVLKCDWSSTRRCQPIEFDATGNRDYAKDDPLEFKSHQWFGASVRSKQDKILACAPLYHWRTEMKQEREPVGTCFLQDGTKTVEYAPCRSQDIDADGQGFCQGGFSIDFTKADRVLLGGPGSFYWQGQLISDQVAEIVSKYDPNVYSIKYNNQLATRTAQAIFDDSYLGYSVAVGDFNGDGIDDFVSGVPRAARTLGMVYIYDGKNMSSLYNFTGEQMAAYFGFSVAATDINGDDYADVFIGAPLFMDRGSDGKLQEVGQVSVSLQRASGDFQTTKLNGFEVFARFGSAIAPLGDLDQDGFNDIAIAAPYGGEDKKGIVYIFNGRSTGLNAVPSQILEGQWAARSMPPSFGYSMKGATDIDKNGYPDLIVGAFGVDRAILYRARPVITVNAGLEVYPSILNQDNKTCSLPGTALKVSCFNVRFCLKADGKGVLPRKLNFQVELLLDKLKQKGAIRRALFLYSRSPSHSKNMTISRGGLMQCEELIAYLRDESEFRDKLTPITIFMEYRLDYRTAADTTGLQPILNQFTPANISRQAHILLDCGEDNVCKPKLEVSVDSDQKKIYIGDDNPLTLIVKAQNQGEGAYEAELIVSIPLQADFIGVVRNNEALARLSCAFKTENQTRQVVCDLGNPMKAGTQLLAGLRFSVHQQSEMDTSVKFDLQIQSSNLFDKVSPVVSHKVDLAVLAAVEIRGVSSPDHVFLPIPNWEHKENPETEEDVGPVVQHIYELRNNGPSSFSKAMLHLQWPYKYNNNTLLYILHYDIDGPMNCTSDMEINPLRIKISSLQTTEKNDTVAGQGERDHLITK
T1 sequence (P06756 891-1048 partner limits assumed): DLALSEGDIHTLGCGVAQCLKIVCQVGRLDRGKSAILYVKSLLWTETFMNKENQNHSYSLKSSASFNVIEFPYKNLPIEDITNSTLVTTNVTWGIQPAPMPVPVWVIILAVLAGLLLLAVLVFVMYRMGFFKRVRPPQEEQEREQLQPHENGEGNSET
T1 sequence (P05106 27-788): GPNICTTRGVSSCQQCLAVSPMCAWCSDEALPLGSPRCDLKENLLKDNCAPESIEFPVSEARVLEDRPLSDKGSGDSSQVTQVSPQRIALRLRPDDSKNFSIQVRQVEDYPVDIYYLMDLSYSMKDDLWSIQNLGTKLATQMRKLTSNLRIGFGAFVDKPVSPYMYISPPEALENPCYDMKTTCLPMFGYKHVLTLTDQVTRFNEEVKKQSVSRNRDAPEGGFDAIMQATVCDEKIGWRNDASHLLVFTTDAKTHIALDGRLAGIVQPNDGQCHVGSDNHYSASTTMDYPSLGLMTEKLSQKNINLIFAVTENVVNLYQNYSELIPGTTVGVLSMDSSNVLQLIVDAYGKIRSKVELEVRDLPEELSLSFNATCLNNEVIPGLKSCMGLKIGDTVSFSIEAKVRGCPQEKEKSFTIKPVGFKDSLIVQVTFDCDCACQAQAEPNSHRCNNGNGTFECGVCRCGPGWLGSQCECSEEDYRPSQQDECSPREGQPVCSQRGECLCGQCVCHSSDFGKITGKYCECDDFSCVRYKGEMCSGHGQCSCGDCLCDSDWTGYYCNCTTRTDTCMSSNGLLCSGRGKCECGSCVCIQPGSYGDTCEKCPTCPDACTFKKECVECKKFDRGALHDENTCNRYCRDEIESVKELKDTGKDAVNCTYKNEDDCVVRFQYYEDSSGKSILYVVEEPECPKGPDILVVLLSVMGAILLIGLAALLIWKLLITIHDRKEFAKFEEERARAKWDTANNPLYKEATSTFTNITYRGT
Experimental: Solid-Phase [^3H]-SK&F-107260 Binding to αvβ3: Human placenta or human platelet αvβ3 (0.1-0.3 mg/mL) in buffer T (containing 2 mM CaCl2 and 1% octylglucoside) was diluted with buffer T containing 1 mM CaCl2, 1 mM MnCl2, 1 mM MgCl2 (buffer A) and 0.05% NaN3, and then immediately added to 96-well ELISA plates (Corning, New York, NY) at 0.1 mL per well. 0.1 - 0.2 µg of αvβ3 was added per well. The plates were incubated overnight at 4°C. At the time of the experiment, the wells were washed once with buffer A and were incubated with 0.1 mL of 3.5% bovine serum albumin in the same buffer for 1 hr at room temperature. Following incubation the wells were aspirated completely and washed twice with 0.2 mL buffer A. […]
The plates were incubated for 1 hr at room temperature. […] The receptors were solubilized with 0.1 mL of 1% SDS and the bound [^3H]-SK&F-107260 was determined by liquid scintillation counting with the addition of 3 mL Ready Safe in a Beckman LS Liquid Scintillation Counter, with 40% efficiency. Nonspecific binding of [^3H]-SK&F-107260 was determined in the presence of 2 µM SK&F-107260 and was consistently less than 1% of total radioligand input. […] The Ki (dissociation constant of the antagonist) was calculated according to the equation: Ki = IC50/(1 + L/Kd), where L and Kd were the concentration and the dissociation constant of [^3H]-SK&F-107260, respectively.

[1] = molecular target: T2, fibrinogen receptor (αIIbβ3) (Homo sapiens, UniProt P05106+P08514); test: Competitive binding of [3H]-SK&F-107260 to αIIbβ3 in liposomes; settings: purified platelet αIIbβ3-containing liposomes, 4.5 nM [3H]-SK&F-107260
T2 construct: followed by the addition of 1 µg of the purified platelet αIIbβ3-containing liposomes; tissue Red Cross (platelets); host or cells: outdated, washed human platelets; lentil lectin sepharose purification
T2 sequence (P08514 32-887 limits assumed): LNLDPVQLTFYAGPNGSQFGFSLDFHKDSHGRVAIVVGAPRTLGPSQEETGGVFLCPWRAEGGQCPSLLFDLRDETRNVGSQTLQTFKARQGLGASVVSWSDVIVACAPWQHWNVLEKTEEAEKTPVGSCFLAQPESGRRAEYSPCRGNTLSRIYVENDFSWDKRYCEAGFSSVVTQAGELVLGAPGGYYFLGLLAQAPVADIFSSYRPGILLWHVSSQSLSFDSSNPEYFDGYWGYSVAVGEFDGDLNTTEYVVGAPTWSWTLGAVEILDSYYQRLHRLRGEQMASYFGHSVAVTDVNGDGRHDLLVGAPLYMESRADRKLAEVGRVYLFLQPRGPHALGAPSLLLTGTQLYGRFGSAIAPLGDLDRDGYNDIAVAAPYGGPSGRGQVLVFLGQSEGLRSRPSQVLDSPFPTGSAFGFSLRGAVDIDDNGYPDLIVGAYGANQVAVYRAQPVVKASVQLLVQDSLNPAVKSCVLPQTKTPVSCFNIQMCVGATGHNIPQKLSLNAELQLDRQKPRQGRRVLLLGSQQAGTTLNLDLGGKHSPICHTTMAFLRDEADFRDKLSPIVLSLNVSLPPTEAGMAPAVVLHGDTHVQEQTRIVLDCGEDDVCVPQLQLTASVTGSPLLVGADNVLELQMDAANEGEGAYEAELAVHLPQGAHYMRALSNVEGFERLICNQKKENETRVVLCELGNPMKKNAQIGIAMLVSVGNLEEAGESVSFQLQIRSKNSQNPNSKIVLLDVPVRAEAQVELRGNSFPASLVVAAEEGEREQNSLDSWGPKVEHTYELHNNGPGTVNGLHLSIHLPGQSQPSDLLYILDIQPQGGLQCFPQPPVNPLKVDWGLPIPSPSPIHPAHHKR
T2 sequence (P08514 891-1039 partner limits assumed): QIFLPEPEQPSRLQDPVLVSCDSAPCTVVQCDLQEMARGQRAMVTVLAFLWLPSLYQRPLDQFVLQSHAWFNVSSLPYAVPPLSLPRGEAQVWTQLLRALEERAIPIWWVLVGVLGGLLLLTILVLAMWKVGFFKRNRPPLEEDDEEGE
T2 sequence (P05106 27-788): as the sequence (P05106 27-788) above
Experimental: Ten units of outdated, washed human platelets (obtained from Red Cross) were lyzed by gentle stirring in 3% octylglucoside, 20 mM Tris-HCl, pH 7.4, 140 mM NaCl, 2 mM CaCl2 at 4°C for 2 h. The lysate was centrifuged at 100,000g for 1 h. The supernatant obtained was applied to a 5 mL lentil lectin sepharose 4B column (E.Y. Labs) preequilibrated with 20 mM Tris-HCl, pH 7.4, 100 mM NaCI, 2 mM CaCl2, 1% octylglucoside (buffer A). After 2 h incubation, the column was washed with 50 mL cold buffer A. The lectin-retained αIIbβ3 was eluted with buffer A containing 10% dextrose. All procedures were performed at 4°C. The αIIbβ3 obtained was >95% pure as shown by SDS polyacrylamide gel electrophoresis. […]
The binding to the fibrinogen receptor (αIIbβ3) was assayed by an indirect competitive binding method using [^3H]-SK&F-107260 as an RGD-type ligand. […] Bound radioactivity remaining on the filters was counted in 1.5 mL Ready Solve (Beckman Instruments, Fullerton, CA) in a Beckman Liquid Scintillation Counter (Model LS6800), with 40% efficiency. Nonspecific binding was determined in the presence of 2 µM unlabeled SK&F-107260 and was consistently less than 0.14% of the total radioactivity added to the samples. […]
Competition binding data were analyzed by a nonlinear least-squares curve fitting procedure. […]

SMILES | Ki (αvβ3) [nM] | Ki [1] [nM]
CN(Cc1nc2ccccc2[nH]1)C(=O)c1ccc2c(c1)Cc1ccccc1C(CC(=O)O)C2 (racemic) [Example 1, (±)-10,11-dihydro-3-[[[(1H-benzimidazol-2-yl)methyl]methylamino]carbonyl]-5H-dibenzo[a,d]cycloheptene-10-acetic acid] | 23 | > 50000
O=C(O)CC1Cc2ccc(C(=O)N3CCC(C4CCNCC4)CC3)cc2Cc2ccccc21 (racemic) [Example 2, (±)-10,11-dihydro-3-[1-(4,4'-bipiperidinyl)carbonyl]-5H-dibenzo[a,d]cycloheptene-10-acetic acid] | 15000 | 9
